Laboratory results: patent US7709503B2, “Pyrrol derivatives with antibacterial activity” (AstraZeneca AB, priority 2003, dated 2010)
Values after ≈ are worked out from the molar mass of the structure shown.

Experiments:
[1] = system: Streptococcus pneumoniae; assay: Bacterial susceptibility testing in liquid media (Minimum Inhibitory Concentration); format: cell-based; conditions: against Streptococcus pneumoniae, 37 degrees C., 24 hrs, lowest concentration able to reduce growth by 80% or more
Description: Compounds were tested for antimicrobial activity by susceptibility testing in liquid media. Compounds were dissolved in dimethylsulfoxide and tested in 10 doubling dilutions in the susceptibility assays. The organisms used in the assay were grown overnight on suitable agar media and then suspended in a liquid medium appropriate for the growth of the organism. The suspension was a 0.5 McFarland and a further 1 in 10 dilution was made into the same liquid medium to prepare the final organism suspension in 100 μL. Plates were incubated under appropriate conditions at 37 degrees C. for 24 hrs prior to reading. The Minimum Inhibitory Concentration was determined as the lowest drug concentration able to reduce growth by 80% or more.

Structure (SMILES) | MIC [1] [mg/L] | melting point [°C]
Cc1[nH]c(C(=O)NC2CCN(c3nc(C#N)cs3)CC2)cc1Br [Example 130, 4-Bromo-N-[1-(4-cyano-1,3-thiazol-2-yl)piperidin-4-yl]-5-methyl-1H-pyrrole-2-carboxamide] | 2 (≈ 5.07 µM) | 
Cc1[nH]c(C(=O)NC2CCN(c3cc(C(=O)O)nc4ccccc34)CC2)c(Cl)c1Cl [Example 225, 4-(4-{[(3,4-Dichloro-5-methyl-1H-pyrrol-2-yl)carbonyl]amino}piperidin-1-yl)quinoline-2-carboxylic acid] |  | 254 to 256
Cc1[nH]c(C(=O)NC2CCN(c3cc(C(=O)O)on3)CC2)c(Cl)c1Cl [Example 226, 3-(4-{[(3,4-Dichloro-5-methyl-1H-pyrrol-2-yl)carbonyl]amino}piperidin-1-yl)isoxazole-5-carboxylic acid] |  | 232 to 234
